Assay results from patent US20240158446A1, “CYCLIC COMPOUND HAVING SELECTIVE INHIBITORY ACTION ON KRAS OVER HRAS AND NRAS” (CHUGAI SEIYAKU KABUSHIKI KAISHA, priority 2021, published 2024).
Read-outs that look alike come from different tables or passages of the source. *1 amine or outer side, *2 acyl side, *3 side chain or, on linkers, in order; H or OH if unused. Where a SMILES comes first, the peptide text is derived from it. Bridges are numbered along the chain shown (N, C = ends). [ ]: non-standard residue; d: D form. The star is where a group is joined. hPhe(3,5-F2-4-CF3) = N[C@@H](CCc1cc(F)c(C(F)(F)F)c(F)c1)C(=O)O; hPhe(3-Cl-4-CF3) = N[C@@H](CCc1ccc(C(F)(F)F)c(Cl)c1)C(=O)O; NPrPhe(4-CF3) = CCCN[C@@H](Cc1ccc(C(F)(F)F)cc1)C(=O)O; NMeGly(cPent) = CN[C@H](C(=O)O)C1CCCC1; X11 = CCC[C@](C)(N[*:1])C(=O)[*:2]; Hyp = O=C(O)[C@@H]1C[C@@H](O)CN1; NMeD = CN[C@@H](CC(=O)O)C(=O)O; NMeL = CN[C@@H](CC(C)C)C(=O)O; αMeS = C[C@](N)(CO)C(=O)O; Morpholide = C1CN(*)CCO1; Ac5c = NC1(C(=O)O)CCCC1; Ac4c = NC1(C(=O)O)CCC1; NEtG = CCNCC(=O)O; Sar = CNCC(=O)O

Tests used:
[1] = molecular target: GDP-bound KRAS wild-type protein (Homo sapiens, UniProt P01116); assay: Binding to KRAS by surface plasmon resonance (SPR), Single Cycle Kinetics; conditions: GDP-bound KRAS wild-type protein, read-out: KRAS KD
[2] = molecular target: GDP-bound HRAS wild-type protein (Homo sapiens, UniProt P01112); assay: Binding to HRAS by surface plasmon resonance (SPR), Single Cycle Kinetics; conditions: for HRAS/KRAS (ratio of KD value with respect to HRAS to KD value with respect to KRAS) / HRAS/KRAS (ratio of KD value for HRAS to KD value for KRAS): SPR, GDP-bound HRAS wild-type protein vs GDP-bound KRAS wild-type protein; for HRAS/KRAS (ratio of KD value with respect to GDP-bound HRAS wild-type protein to KD value with respect to KRAS): SPR KD ratio HRAS/KRAS, class symbols
[3] = molecular target: GDP-bound NRAS wild-type protein (Homo sapiens, UniProt P01111); assay: Binding to NRAS by surface plasmon resonance (SPR), Single Cycle Kinetics; conditions: for NRAS/KRAS (ratio of KD value with respect to NRAS to KD value with respect to KRAS) / NRAS/KRAS (ratio of KD value for NRAS to KD value for KRAS): SPR, GDP-bound NRAS wild-type protein vs GDP-bound KRAS wild-type protein; for NRAS/KRAS (ratio of KD value with respect to GDP-bound NRAS wild-type protein to KD value with respect to KRAS): SPR KD ratio NRAS/KRAS, class symbols
[4] = SPR Single Cycle Kinetics, 1:1 binding model

Chain of GDP-bound KRAS wild-type protein (P01116 whole entry): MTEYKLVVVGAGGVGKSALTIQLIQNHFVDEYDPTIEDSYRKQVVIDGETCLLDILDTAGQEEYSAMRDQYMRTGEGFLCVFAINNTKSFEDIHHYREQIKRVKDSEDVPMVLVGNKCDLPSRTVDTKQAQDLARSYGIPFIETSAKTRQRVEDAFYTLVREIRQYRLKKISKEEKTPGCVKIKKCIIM
Chain of GDP-bound NRAS wild-type protein (P01111 whole entry): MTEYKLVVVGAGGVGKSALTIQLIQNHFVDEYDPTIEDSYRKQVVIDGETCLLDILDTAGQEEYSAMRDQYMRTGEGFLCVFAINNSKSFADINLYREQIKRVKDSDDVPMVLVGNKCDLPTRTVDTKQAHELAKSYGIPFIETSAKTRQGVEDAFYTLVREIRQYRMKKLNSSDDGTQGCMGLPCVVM
Chain of GDP-bound HRAS wild-type protein (P01112 whole entry): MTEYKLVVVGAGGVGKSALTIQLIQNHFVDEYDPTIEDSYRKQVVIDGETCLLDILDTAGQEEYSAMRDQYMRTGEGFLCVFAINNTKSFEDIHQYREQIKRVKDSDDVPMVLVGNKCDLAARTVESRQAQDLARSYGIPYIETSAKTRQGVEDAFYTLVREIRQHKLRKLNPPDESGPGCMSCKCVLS

Kd [1, 4] [nM] | Kd ([1]; SPR, Single Cycle Kinetics) [nM] | Compound | HRAS/KRAS (ratio of KD value with respect to HRAS to KD value with respect to KRAS) [2] | NRAS/KRAS (ratio of KD value with respect to NRAS to KD value with respect to KRAS) [3] | HRAS/KRAS (ratio of KD value for HRAS to KD value for KRAS) [2] | NRAS/KRAS (ratio of KD value for NRAS to KD value for KRAS) [3] | HRAS/KRAS (ratio of KD value with respect to GDP-bound HRAS wild-type protein to KD value with respect to KRAS) [2] | NRAS/KRAS (ratio of KD value with respect to GDP-bound NRAS wild-type protein to KD value with respect to KRAS) [3]
 | 3.6 | CCC[C@H]1C(=O)N[C@@H]([C@@H](C)CC)C(=O)N2CCC[C@H]2C(=O)N(C)[C@H]2C/C=C\CCN(C2=O)[C@@H](CC2CCCCC2)C(=O)N(C)CC(=O)N[C@@H](CCc2ccc(C(F)(F)F)c(OC)c2)C(=O)N2C[C@H](OCC)C[C@H]2C(=O)N(C)C2(CCC2)C(=O)N(C)[C@@H](C(CC)CC)C(=O)N(C)[C@H](C(=O)N(C)C)CC(=O)N1C [PP2341] |  |  | A (a compound having 10 or more and less than 20 is denoted as A) | A (a compound having 10 or more and less than 20 is denoted as A) |  | 
 | 0.68 | CCO[C@@H]1C[C@H]2C(=O)NC3(CCC3)C(=O)N(C)[C@@H](C3CCCC3)C(=O)N[C@H](C)CC(=O)N(C)[C@@H](CC)C(=O)N[C@@H]([C@@H](C)CC)C(=O)N(C)CC(=O)N(C)[C@H]3C/C=C\CCN(C3=O)[C@@H](Cc3ccc(C(F)(F)F)cc3)C(=O)N(C)CC(=O)N[C@@H](CCc3cc(F)c(C(F)(F)F)c(F)c3)C(=O)N2C1 [PP1098] |  |  | B (a compound having 3 or more and less than 10 is denoted as B) | B (a compound having 3 or more and less than 10 is denoted as B) |  | 
 | 0.38 | CCO[C@@H]1C[C@H]2C(=O)NC3(CCCC3)C(=O)N(C)[C@@H](C3CCCC3)C(=O)N(C)[C@H](C(=O)N(C)C)CC(=O)N(C)[C@@H](CC(C)C)C(=O)N[C@@H]([C@@H](C)CC)C(=O)N(C)CC(=O)N(C)[C@H]3C/C=C\CCN(C3=O)[C@@H](Cc3ccc(C(F)(F)F)cc3)C(=O)N(C)CC(=O)N[C@@H](CCc3cc(F)c(Cl)c(F)c3)C(=O)N2C1 [PP2269] |  |  | A (a compound having 10 or more and less than 20 is denoted as A) | A (a compound having 10 or more and less than 20 is denoted as A) |  | 
 | 27 | CCO[C@@H]1C[C@H]2C(=O)NC3(CCC3)C(=O)N(C)[C@@H](C3CCCC3)C(=O)N(CC)[C@H](C(=O)N3CCOCC3)CC(=O)N(C)[C@@H](CCc3ccccc3)C(=O)N[C@@H]([C@@H](C)CC)C(=O)N(C)CC(=O)N(C)[C@H]3CCCCCN(C3=O)[C@@H](Cc3ccc(C(F)(F)F)cc3)C(=O)N(C)CC(=O)N[C@@H](CCc3cc(F)c(C(F)(F)F)c(F)c3)C(=O)N2C1 [PP0953] |  |  | A (a compound having 10 or more and less than 20 is denoted as A) | A (a compound having 10 or more and less than 20 is denoted as A) |  | 
0.55 |  | CCC[C@H]1C(=O)N[C@@H]([C@@H](C)CC)C(=O)N(C)CC(=O)N(C)[C@H]2C/C=C\CCN(C2=O)[C@@H](Cc2ccc(C(F)(F)F)cc2)C(=O)N(C)CC(=O)N[C@@H](CCc2ccc(C(F)(F)F)c(OC)c2)C(=O)N2CCCCC[C@H]2C(=O)NC2(CC(C)(C)C2)C(=O)N(C)[C@@H](C(CC)CC)C(=O)N(C)[C@H](C(=O)N(C)C)CC(=O)N1C [PP2968] |  |  |  |  | A (a compound having 10 or more and less than 20 is denoted as A) | AA (a compound having 20 or more is denoted as AA)
3.6 |  | CCC[C@H]1C(=O)N[C@@H]([C@@H](C)CC)C(=O)N(C2CC2)CC(=O)N(C)[C@H]2C/C=C\CCN(C2=O)[C@@H](Cc2ccc(C(F)(F)F)cc2)C(=O)N(C)CC(=O)N[C@@H](CCc2ccc(C(F)(F)F)c(OC)c2)C(=O)N2C[C@H](OCC)C[C@H]2C(=O)NC2(CC(C)(C)C2)C(=O)N(C)[C@@H](CC2CC2)C(=O)N(C)[C@H](C(=O)N(C)C)CC(=O)N1C [PP2815] |  |  |  |  | A (a compound having 10 or more and less than 20 is denoted as A) | A (a compound having 10 or more and less than 20 is denoted as A)

Second part, the compound before the results:

Compound | Kd [1, 4] [nM] | Kd ([1]; SPR, Single Cycle Kinetics) [nM] | HRAS/KRAS (ratio of KD value with respect to HRAS to KD value with respect to KRAS) [2] | NRAS/KRAS (ratio of KD value with respect to NRAS to KD value with respect to KRAS) [3] | HRAS/KRAS (ratio of KD value for HRAS to KD value for KRAS) [2] | NRAS/KRAS (ratio of KD value for NRAS to KD value for KRAS) [3] | HRAS/KRAS (ratio of KD value with respect to GDP-bound HRAS wild-type protein to KD value with respect to KRAS) [2] | NRAS/KRAS (ratio of KD value with respect to GDP-bound NRAS wild-type protein to KD value with respect to KRAS) [3]
CCCN1C(=O)CN(C)C(=O)CN(C)C(=O)[C@H]([C@@H](C)CC)NC(=O)[C@H](CC(C)C)N(C)C(=O)C[C@@H](C(=O)N(C)C)N(C)C(=O)[C@H](C2CCCC2)N(C)C(=O)[C@](C)(COC)NC(=O)[C@@H]2CCCN2C(=O)[C@H](CCc2cc(F)c(C(F)(F)F)c(F)c2)NC(=O)CN(C)C(=O)[C@@H]1Cc1ccc(C(F)(F)F)cc1 [PP0741] ([NMeL]I[Sar][Sar][NPrPhe(4-CF3)][Sar][hPhe(3,5-F2-4-CF3)]P[αMeS](Me)[NMeGly(cPent)][NMeD]-NMe2; lactam N-11) | 0.28 |  | B (a compound having 3 or more and less than 10 is denoted as B) | B (a compound having 3 or more and less than 10 is denoted as B) |  |  |  | 
CCCN1C(=O)CN(C)C(=O)CNC(=O)[C@H]([C@@H](C)CC)NC(=O)[C@H](CC(C)C)N(C)C(=O)C[C@@H](C(=O)N2CCOCC2)NC(=O)[C@H](C2CCCC2)N(C)C(=O)C2(CCC2)NC(=O)[C@@H]2CCCN2C(=O)[C@H](CCc2ccc(C(F)(F)F)c(Cl)c2)NC(=O)CN(C)C(=O)[C@@H]1Cc1ccc(C(F)(F)F)cc1 [PP0326] ([NMeL]IG[Sar][NPrPhe(4-CF3)][Sar][hPhe(3-Cl-4-CF3)]P[Ac4c][NMeGly(cPent)]D-Morpholide; lactam N-11) | 1.5 |  |  |  | B (a compound having 3 or more and less than 10 is denoted as B) | B (a compound having 3 or more and less than 10 is denoted as B) |  | 
CCCN1C(=O)CN(C)C(=O)CN(C)C(=O)[C@H]([C@@H](C)CC)NC(=O)[C@H](CC(C)C)N(C)C(=O)C[C@@H](C(=O)N(C)C)N(C)C(=O)[C@H](C2CCCC2)N(C)C(=O)[C@](C)(CCC)NC(=O)[C@@H]2CCCN2C(=O)[C@H](CCc2cc(F)c(C(F)(F)F)c(F)c2)NC(=O)CN(C)C(=O)[C@@H]1Cc1ccc(C(F)(F)F)cc1 [PP0737] ([NMeL]I[Sar][Sar][NPrPhe(4-CF3)][Sar][hPhe(3,5-F2-4-CF3)]P[X11][NMeGly(cPent)][NMeD]-NMe2; lactam N-11) | 0.55 |  | C (A compound having a KD ratio of 0.1 or more and less than 3 is denoted as C) | B (a compound having 3 or more and less than 10 is denoted as B) |  |  |  | 
CCCN1C(=O)CN(C)C(=O)CN(CC)C(=O)[C@H]([C@@H](C)CC)NC(=O)[C@H](CC(C)C)N(C)C(=O)C[C@@H](C(=O)N(C)C)N(C)C(=O)[C@H](C2CCCC2)N(C)C(=O)C2(CCCC2)NC(=O)[C@@H]2C[C@@H](OCC)CN2C(=O)[C@H](CCc2ccc(C(F)(F)F)c(Cl)c2)NC(=O)CN(C)C(=O)[C@@H]1Cc1ccc(C(F)(F)F)cc1 [PP0427] ([NMeL]I[NEtG][Sar][NPrPhe(4-CF3)][Sar][hPhe(3-Cl-4-CF3)][Hyp](Et)[Ac5c][NMeGly(cPent)][NMeD]-NMe2; lactam N-11) | 0.11 |  | C (A compound having a KD ratio of 0.1 or more and less than 3 is denoted as C) | B (a compound having 3 or more and less than 10 is denoted as B) |  |  |  | 
